Values joined by “and” are separate entries in the source; they are usually repeats but may differ in a detail not shown here. Equal values may be shown once. Toxic doses and inconclusive results are not listed.
Test system: BDF1 mice, P388 leukemia ip, median survival T/C
Assay: NCI In Vivo Anticancer Drug Screen. Data for tumor model P388 Leukemia (intraperitoneal) in B6D2F1 (BDF1) mice
Settings: endpoint: median survival time, higher = longer survival
Summary of the method: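 Mice carrying the transplantable tumour receive compound or vehicle. Survival is followed in each arm, and the treated measure is divided by the vehicle measure.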

[1] = dose: 100.0 mg/kg/injection, schedule: Q04DX003 (ip), vehicle: Klucel (hydroxypropylcellulose) (HPC)
[2] = dose: 200.0 mg/kg/injection, schedule: Q04DX003 (ip), vehicle: Klucel (hydroxypropylcellulose) (HPC)
[3] = dose: 100.0 mg/kg/injection, schedule: Q04DX003 (ip), vehicle: saline with Tween-80
[4] = dose: 200.0 mg/kg/injection, schedule: Q04DX003 (ip), vehicle: saline with Tween-80
[5] = dose: 400.0 mg/kg/injection, schedule: Q04DX003 (ip), vehicle: saline with Tween-80
[6] = dose: 25.0 mg/kg/injection, schedule: Q04DX003 (ip), vehicle: saline with Tween-80
[7] = dose: 50.0 mg/kg/injection, schedule: Q01DX009 (ip), vehicle: saline
[8] = dose: 50.0 mg/kg/injection, schedule: Q04DX003 (ip), vehicle: saline with Tween-80
[9] = dose: 200.0 mg/kg/injection, schedule: Q01DX009 (ip), vehicle: saline
[10] = dose: 50.0 mg/kg/injection, schedule: Q01DX009 (ip), vehicle: saline with Tween-80
[11] = dose: 100.0 mg/kg/injection, schedule: Q01DX009 (ip), vehicle: saline with Tween-80
[12] = dose: 200.0 mg/kg/injection, schedule: Q01DX009 (ip), vehicle: saline with Tween-80
[13] = dose: 50.0 mg/kg/injection, schedule: Q01DX009 (ip), vehicle: water
[14] = dose: 100.0 mg/kg/injection, schedule: Q01DX009 (ip), vehicle: water
[15] = dose: 100.0 mg/kg/injection, schedule: Q04DX003 (ip), vehicle: water
[16] = dose: 200.0 mg/kg/injection, schedule: Q01DX009 (ip), vehicle: water
[17] = dose: 200.0 mg/kg/injection, schedule: Q04DX003 (ip), vehicle: water
[18] = dose: 400.0 mg/kg/injection, schedule: Q04DX003 (ip), vehicle: water

ClC(Cl)(Cl)c1cccc(C(Cl)(Cl)Cl)c1
T/C [1]: 115 % of control
T/C [2]: 120 % of control
T/C (dose: 266.0 mg/kg/injection, schedule: Q04DX003 (ip), vehicle: Klucel (hydroxypropylcellulose) (HPC)): 90 % of control

CCN(CC)c1ccc(NC(=O)Nc2ccccc2OC)cc1
T/C [3]: 95 % of control
T/C [4]: 100 % of control
T/C [5]: 100 % of control

O=C(O)CCI
T/C [6]: 113 % of control
T/C [7]: 100 % of control
T/C [8]: 100 % of control
T/C (dose: 100.0 mg/kg/injection, schedule: Q01DX001 (ip), vehicle: saline): 104 % of control
T/C (dose: 100.0 mg/kg/injection, schedule: Q01DX009 (ip), vehicle: saline): 100 % of control
T/C [3]: 92 % of control and 95 % of control
T/C (dose: 200.0 mg/kg/injection, schedule: Q01DX001 (ip), vehicle: saline): 104 % of control
T/C [9]: 91 % of control

Cc1cc(=O)[nH]c2c1CCC2
T/C [10]: 109 % of control
T/C [8]: 100 % of control
T/C [11]: 90 % of control
T/C [3]: 100 % of control
T/C [12]: 104 % of control
T/C [4]: 100 % of control

CCN(CC)c1ccc(/C=C\c2c(C)cnc3ccccc23)cc1
T/C [6]: 95 % of control
T/C [8]: 95 % of control
T/C [3]: 96 % of control and 110 % of control
T/C [4]: 97 % of control
T/C [5]: 97 % of control

COc1ccc(Cl)cc1NC(=O)NNC(=O)C(=O)Nc1ccc(F)cc1
T/C (dose: 50.0 mg/kg/injection, schedule: Q01DX005 (ip), vehicle: saline with Tween-80): 91 % of control
T/C (dose: 100.0 mg/kg/injection, schedule: Q01DX005 (ip), vehicle: saline with Tween-80): 91 % of control
T/C (dose: 200.0 mg/kg/injection, schedule: Q01DX005 (ip), vehicle: saline with Tween-80): 100 % of control

O=C(NCCO)c1cc2ccccc2cc1O
T/C (dose: 100.0 mg/kg/injection, schedule: Q01DX009 (ip), vehicle: Klucel (hydroxypropylcellulose) (HPC)): 90 % of control
T/C [1]: 104 % of control
T/C (dose: 200.0 mg/kg/injection, schedule: Q01DX009 (ip), vehicle: Klucel (hydroxypropylcellulose) (HPC)): 100 % of control
T/C [2]: 100 % of control
T/C (dose: 400.0 mg/kg/injection, schedule: Q01DX009 (ip), vehicle: Klucel (hydroxypropylcellulose) (HPC)): 100 % of control
T/C (dose: 400.0 mg/kg/injection, schedule: Q04DX003 (ip), vehicle: Klucel (hydroxypropylcellulose) (HPC)): 100 % of control

CN(C)C1Cc2ccccc2C1OC(=O)c1ccccc1 (stereo unspecified)
T/C [7]: 103 % of control
T/C [9]: 91 % of control

O=C1c2ccccc2CC1(Cl)Cl
T/C (dose: 100.0 mg/kg/injection, schedule: Q01DX001 (ip), vehicle: saline with Tween-80): 101 % of control
T/C (dose: 200.0 mg/kg/injection, schedule: Q01DX001 (ip), vehicle: saline with Tween-80): 96 % of control
T/C (dose: 400.0 mg/kg/injection, schedule: Q01DX001 (ip), vehicle: saline with Tween-80): 101 % of control

CCOC(=O)C(I)CC (stereo unspecified)
T/C (dose: 6.25 mg/kg/injection, schedule: Q04DX003 (ip), vehicle: water): 100 % of control
T/C (dose: 12.5 mg/kg/injection, schedule: Q01DX009 (ip), vehicle: water): 105 % of control
T/C (dose: 12.5 mg/kg/injection, schedule: Q04DX003 (ip), vehicle: water): 100 % of control
T/C (dose: 25.0 mg/kg/injection, schedule: Q01DX009 (ip), vehicle: water): 98 % of control
T/C (dose: 25.0 mg/kg/injection, schedule: Q04DX003 (ip), vehicle: water): 105 % of control
T/C [13]: 107 % of control
T/C (dose: 50.0 mg/kg/injection, schedule: Q04DX003 (ip), vehicle: water): 101 % of control
T/C [14]: 116 % of control
T/C [15]: 96 % of control
T/C [16]: 123 % of control
T/C [17]: 98 % of control and 104 % of control
T/C (dose: 300.0 mg/kg/injection, schedule: Q04DX003 (ip), vehicle: water): 110 % of control
T/C [18]: 104 % of control

O=c1c2cc3nc4ccccn4c(=O)c3cc2nc2ccccn12
T/C [10]: 91 % of control
T/C [11]: 86 % of control
T/C [12]: 91 % of control

COc1ccc(C(C)=O)cc1OCc1ccccc1
T/C [13]: 114 % of control
T/C [14]: 109 % of control
T/C [15]: 102 % of control
T/C [16]: 119 % of control
T/C [17]: 102 % of control
T/C (dose: 400.0 mg/kg/injection, schedule: Q01DX009 (ip), vehicle: water): 111 % of control
T/C [18]: 111 % of control

O=C(O)c1ccccc1NSc1ccccc1[N+](=O)[O-]
T/C [10]: 97 % of control
T/C [11]: 109 % of control
T/C [12]: 111 % of control

COc1cccc2c1C(=O)c1c(O)c3c(c(O)c1C2=O)C[C@@](O)(C(=O)CO)C[C@@H]3OC1CC(N(C)C)C(O)C(C)O1 (stereo partly specified)
T/C (dose: 1.44 mg/kg/injection, schedule: Q04DX003 (ip), vehicle: water): 170 % of control
T/C (dose: 2.4 mg/kg/injection, schedule: Q04DX003 (ip), vehicle: water): 198 % of control
T/C (dose: 4.0 mg/kg/injection, schedule: Q04DX003 (ip), vehicle: water): 89 % of control

O=C1/C(=C/c2ccccc2)Cc2cccc(O)c21
T/C (dose: 37.5 mg/kg/injection, schedule: Q01DX001 (ip), vehicle: saline with Tween-80): 100 % of control
T/C (dose: 75.0 mg/kg/injection, schedule: Q01DX001 (ip), vehicle: saline with Tween-80): 100 % of control
T/C (dose: 150.0 mg/kg/injection, schedule: Q01DX001 (ip), vehicle: saline with Tween-80): 100 % of control

CN(CCC#N)C1=CCCC1
T/C (dose: 50.0 mg/kg/injection, schedule: Q04DX003 (ip), vehicle: saline): 100 % of control
T/C (dose: 100.0 mg/kg/injection, schedule: Q04DX003 (ip), vehicle: saline): 100 % of control
T/C (dose: 200.0 mg/kg/injection, schedule: Q04DX003 (ip), vehicle: saline): 100 % of control

CCN(CC)C(=O)C1=NNc2ccc(Cl)cc2C(=O)N1C
T/C [3]: 100 % of control
T/C [4]: 109 % of control
T/C [5]: 97 % of control

Cc1ccc([I+]c2ccc(C)cc2C)c(C)c1
T/C (dose: 0.19 mg/kg/injection, schedule: Q01DX009 (ip), vehicle: Klucel (hydroxypropylcellulose) (HPC)): 90 % of control
T/C (dose: 0.39 mg/kg/injection, schedule: Q01DX009 (ip), vehicle: Klucel (hydroxypropylcellulose) (HPC)): 90 % of control
T/C (dose: 0.78 mg/kg/injection, schedule: Q01DX009 (ip), vehicle: Klucel (hydroxypropylcellulose) (HPC)): 100 % of control
T/C (dose: 1.17 mg/kg/injection, schedule: Q04DX003 (ip), vehicle: Klucel (hydroxypropylcellulose) (HPC)): 104 % of control
T/C (dose: 1.5 mg/kg/injection, schedule: Q01DX009 (ip), vehicle: Klucel (hydroxypropylcellulose) (HPC)): 90 % of control
T/C (dose: 1.56 mg/kg/injection, schedule: Q01DX009 (ip), vehicle: Klucel (hydroxypropylcellulose) (HPC)): 87 % of control
T/C (dose: 2.34 mg/kg/injection, schedule: Q04DX003 (ip), vehicle: Klucel (hydroxypropylcellulose) (HPC)): 108 % of control
T/C (dose: 3.0 mg/kg/injection, schedule: Q01DX009 (ip), vehicle: Klucel (hydroxypropylcellulose) (HPC)): 100 % of control and 103 % of control
T/C (dose: 4.68 mg/kg/injection, schedule: Q04DX003 (ip), vehicle: Klucel (hydroxypropylcellulose) (HPC)): 113 % of control
T/C (dose: 6.0 mg/kg/injection, schedule: Q01DX009 (ip), vehicle: Klucel (hydroxypropylcellulose) (HPC)): 103 % of control
T/C (dose: 6.6 mg/kg/injection, schedule: Q04DX003 (ip), vehicle: Klucel (hydroxypropylcellulose) (HPC)): 100 % of control
T/C (dose: 10.0 mg/kg/injection, schedule: Q04DX003 (ip), vehicle: Klucel (hydroxypropylcellulose) (HPC)): 113 % of control
T/C (dose: 12.0 mg/kg/injection, schedule: Q04DX003 (ip), vehicle: Klucel (hydroxypropylcellulose) (HPC)): 100 % of control
T/C (dose: 12.5 mg/kg/injection, schedule: Q04DX003 (ip), vehicle: Klucel (hydroxypropylcellulose) (HPC)): 103 % of control
T/C (dose: 25.0 mg/kg/injection, schedule: Q04DX003 (ip), vehicle: Klucel (hydroxypropylcellulose) (HPC)): 100 % of control
T/C (dose: 50.0 mg/kg/injection, schedule: Q04DX003 (ip), vehicle: Klucel (hydroxypropylcellulose) (HPC)): 91 % of control

CCSC1(SCC)C(=O)OC2=C(CCCC2)C1N1CCOCC1 (stereo unspecified)
T/C [10]: 99 % of control
T/C [11]: 99 % of control
T/C [12]: 94 % of control

Source: PubChem BioAssay AID328 (DTP/NCI, 2004)
